Assay results taken from patent EP4813991A1 (iLeadBMS Co., Ltd., priority 2023, dated 2025).
Where two headings read alike, the source gives them in different places.

Tests used:
[1] = system: SW480; assay: Colorectal cancer cell proliferation inhibitory activity, SW480; type: cell-based; details: Homo sapiens, 72 hours, Cell Counting Kit-8, relative IC50
Protocol: (§1) Experiments were performed using seven types of colorectal cancer cell lines to measure the cell proliferation inhibitory ability of each Example compound. DLD-1, LoVo, SW620, SW480, HCT116, HCT15, and HT29 cells were dispensed into a 96-well plate at 100 µL of cell suspension per well using RPMI1640 medium containing 10 % FBS and 1 % PS, followed by incubation in a cell incubator at 37 °C and 5 % CO2. The next day, each Example compound dissolved and diluted in DMSO across 10 concentration ranges and a DMSO control group were treated on the cells for 72 hours. After completion of the compound treatment, 10 µL of Cell Counting Kit-8 (Dojindo) reagent was added to each well of the 96-well plate, followed by incubation for 2 hours. […] were measured after inserting the 96-well plate into an Envision plate reader […]. Relative IC50 values were calculated by fitting a dose-response curve using Graphpad PRISM software.
(§2) The colorectal cancer cell proliferation inhibitory activities of the Example compounds measured by the method described above were evaluated according to the following criteria, and the results are presented in Table 19.

[2] = system: HCT15; assay: Colorectal cancer cell proliferation inhibitory activity, HCT15; type: cell-based; details: Homo sapiens, HCT-15; 72 hours, Cell Counting Kit-8, relative IC50
Protocol: as §1, §2

[3] = system: Cyclin K; assay: Analysis of Cyclin K degradation ability in MKN45 gastric cancer cells (western blot); type: cell-based; details: 8 hours or 24 hours, compared to the negative control group (DMSO), FIGs. 4 and 5
Protocol: In order to confirm the Cyclin K degradation ability of the Example compounds, HCC70 breast cancer cells and MKN45 gastric cancer cells were cultured in RPMI-1640 medium supplemented with 10 % FBS, and then the cells were collected to prepare cell suspensions. The HCC70 breast cancer cell suspension was dispensed at a cell number of 2.0 X 10^6 per 6-well and cultured in a 5 % CO2 cell incubator at 37 °C for 24 hours, and the MKN45 gastric cancer cell suspension was dispensed at a cell number of 5.0 X 10^6 per 6-well and cultured in a 5 % CO2 cell incubator at 37 °C for 24 hours. The next day, each Example compound dissolved and diluted in DMSO across 4 to 5 concentration ranges and a negative control group (DMSO-treated group) were added to the 6-wells, and the HCC70 breast cancer cells were treated for 8 hours while the MKN45 gastric cancer cells were treated with the compounds for 8 hours or 24 hours. After completion of the compound treatment, the medium was removed, each cell was washed with PBS, and then 100 µL of RIPA buffer for cell lysis was added to each 6-well to collect cell lysates. The protein concentration of the cell lysates was quantified by the […], and loading buffer was added to adjust the protein concentration to 30 µg, followed by reaction at 85 °C for 10 minutes, centrifugation, and standing at room temperature. […]

[4] = system: Cyclin K; assay: Analysis of Cyclin K degradation ability in HCC70 breast cancer cells (western blot); type: cell-based; details: 8 hours, compared to the negative control group (DMSO), FIGs. 1 to 3
Protocol: In order to confirm the Cyclin K degradation ability of the Example compounds, HCC70 breast cancer cells and MKN45 gastric cancer cells were cultured in RPMI-1640 medium supplemented with 10 % FBS, and then the cells were collected to prepare cell suspensions. The HCC70 breast cancer cell suspension was dispensed at a cell number of 2.0 X 10^6 per 6-well and cultured in a 5 % CO2 cell incubator at 37 °C for 24 hours, and the MKN45 gastric cancer cell suspension was dispensed at a cell number of 5.0 X 10^6 per 6-well and cultured in a 5 % CO2 cell incubator at 37 °C for 24 hours. The next day, each Example compound dissolved and diluted in DMSO across 4 to 5 concentration ranges and a negative control group (DMSO-treated group) were added to the 6-wells, and the HCC70 breast cancer cells were treated for 8 hours while the MKN45 gastric cancer cells were treated with the compounds for 8 hours or 24 hours. After completion of the compound treatment, the medium was removed, each cell was washed with PBS, and then 100 µL of RIPA buffer for cell lysis was added to each 6-well to collect cell lysates. The protein concentration of the cell lysates was quantified by the […], and loading buffer was added to adjust the protein concentration to 30 µg, followed by reaction at 85 °C for 10 minutes, centrifugation, and standing at room temperature. After electrophoresis on a 4-12 % Bis-Tris gel, proteins were transferred to a nitrocellulose membrane. Primary antibodies, Cyclin K (1:1000, Bethyl Lab) and Vinculin (1:1000, Sigma), were attached to the membrane, respectively, and then labeled using a secondary antibody (1:10000, LI-COR).

[5] = target: CDK12 (Homo sapiens, UniProt Q9NYV4); assay: CDK12 kinase inhibitory activity assay (33P-ATP filter binding); type: biochemical
How it was run: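 Compound in 9 concentrations pre-incubated 20 min with kinase and substrate, then ^33P-γ-ATP added and reacted 120 min at room temperature. Phosphorylated substrate captured on filter, washed with 0.75 % phosphoric acid and counted; activity as % of DMSO control, IC50 fitted.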

[6] = system: AGS cells; assay: Gastric cancer cell proliferation inhibitory activity (Cell Counting Kit-8), AGS; type: cell-based; details: Homo sapiens, 72 hours, Cell Counting Kit-8, relative IC50
Protocol: as §1, with “six” for “seven”, “gastric” for “colorectal”, “NCI-N87, SNU601, KATO-III, MKN1,” for “DLD-1, LoVo, SW620, SW480, HCT116, HCT15,”, “AGS” for “HT29”, “RPMI1640 medium containing 10 % FBS and 1 % PS, followed by incubation in a cell incubator at 37 °C and 5 % CO2. HS746T cells were dispensed into a 96-well plate at 100 µL of cell suspension per well using DMEM” for “RPMI1640”
(§3) The gastric cancer cell proliferation inhibitory activities of the Example compounds measured by the method described above were evaluated according to the following criteria, and the results are presented in Table 20.

[7] = system: MKN1; assay: Gastric cancer cell proliferation inhibitory activity (Cell Counting Kit-8), MKN1; type: cell-based; details: Homo sapiens, MKN-1; 72 hours, Cell Counting Kit-8, relative IC50
Protocol: as §1, with “six” for “seven”, “gastric” for “colorectal”, “NCI-N87, SNU601, KATO-III, MKN1,” for “DLD-1, LoVo, SW620, SW480, HCT116, HCT15,”, “AGS” for “HT29”, “RPMI1640 medium containing 10 % FBS and 1 % PS, followed by incubation in a cell incubator at 37 °C and 5 % CO2. HS746T cells were dispensed into a 96-well plate at 100 µL of cell suspension per well using DMEM” for “RPMI1640”
as §3

[8] = system: HCT116; assay: Colorectal cancer cell proliferation inhibitory activity, HCT116; type: cell-based; details: Homo sapiens, HCT-116; 72 hours, Cell Counting Kit-8, relative IC50
Protocol: as §1, §2

[9] = system: SNU601; assay: Gastric cancer cell proliferation inhibitory activity (Cell Counting Kit-8), SNU601; type: cell-based; details: SNU-601; 72 hours, Cell Counting Kit-8, relative IC50
Protocol: as §1, with “six” for “seven”, “gastric” for “colorectal”, “NCI-N87, SNU601, KATO-III, MKN1,” for “DLD-1, LoVo, SW620, SW480, HCT116, HCT15,”, “AGS” for “HT29”, “RPMI1640 medium containing 10 % FBS and 1 % PS, followed by incubation in a cell incubator at 37 °C and 5 % CO2. HS746T cells were dispensed into a 96-well plate at 100 µL of cell suspension per well using DMEM” for “RPMI1640”
as §3

[10] = kinase reaction 120 minutes, 33P-gamma-ATP, read-out: CDK12 IC50

Sequence of CDK12 (Q9NYV4 whole entry, species assumed): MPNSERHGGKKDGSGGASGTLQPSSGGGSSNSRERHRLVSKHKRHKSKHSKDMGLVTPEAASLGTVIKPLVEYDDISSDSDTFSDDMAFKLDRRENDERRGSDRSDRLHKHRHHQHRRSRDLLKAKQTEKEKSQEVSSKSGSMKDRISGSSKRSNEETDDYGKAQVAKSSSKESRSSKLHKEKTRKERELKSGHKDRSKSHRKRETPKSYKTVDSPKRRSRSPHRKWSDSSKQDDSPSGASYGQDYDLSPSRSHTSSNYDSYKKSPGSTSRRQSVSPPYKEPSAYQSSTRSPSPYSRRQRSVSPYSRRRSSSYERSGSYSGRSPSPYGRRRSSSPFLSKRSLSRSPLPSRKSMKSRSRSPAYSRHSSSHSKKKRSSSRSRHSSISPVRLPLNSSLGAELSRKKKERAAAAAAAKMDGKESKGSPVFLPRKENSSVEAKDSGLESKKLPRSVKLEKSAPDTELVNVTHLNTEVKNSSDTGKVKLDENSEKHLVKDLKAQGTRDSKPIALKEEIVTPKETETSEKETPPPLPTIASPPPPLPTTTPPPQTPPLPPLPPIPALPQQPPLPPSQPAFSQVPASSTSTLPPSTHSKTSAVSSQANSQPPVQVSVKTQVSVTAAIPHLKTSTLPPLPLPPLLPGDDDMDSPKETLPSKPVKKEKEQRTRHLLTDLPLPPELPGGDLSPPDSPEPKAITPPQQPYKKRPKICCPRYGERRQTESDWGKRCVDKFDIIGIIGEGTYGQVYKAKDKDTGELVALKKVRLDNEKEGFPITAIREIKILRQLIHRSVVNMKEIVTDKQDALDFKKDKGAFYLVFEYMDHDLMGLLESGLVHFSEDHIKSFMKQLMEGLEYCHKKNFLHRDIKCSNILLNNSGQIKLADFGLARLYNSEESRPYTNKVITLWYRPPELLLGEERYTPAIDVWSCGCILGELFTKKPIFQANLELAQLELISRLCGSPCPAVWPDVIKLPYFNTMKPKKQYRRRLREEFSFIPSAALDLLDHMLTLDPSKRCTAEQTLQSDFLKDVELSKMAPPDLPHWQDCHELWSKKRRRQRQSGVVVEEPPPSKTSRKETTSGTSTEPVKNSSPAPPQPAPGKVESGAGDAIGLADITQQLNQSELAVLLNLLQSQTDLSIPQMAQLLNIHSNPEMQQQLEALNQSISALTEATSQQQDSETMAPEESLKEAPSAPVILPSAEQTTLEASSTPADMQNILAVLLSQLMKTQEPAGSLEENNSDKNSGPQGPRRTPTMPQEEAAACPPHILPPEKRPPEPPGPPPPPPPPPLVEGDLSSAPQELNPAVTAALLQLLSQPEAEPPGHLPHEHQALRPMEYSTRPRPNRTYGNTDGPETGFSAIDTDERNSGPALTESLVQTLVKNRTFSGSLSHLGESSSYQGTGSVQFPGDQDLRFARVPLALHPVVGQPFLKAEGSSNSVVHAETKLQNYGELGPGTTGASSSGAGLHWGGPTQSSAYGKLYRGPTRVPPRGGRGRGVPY
Sequence of CDK12 (O75909 whole entry partner, species assumed): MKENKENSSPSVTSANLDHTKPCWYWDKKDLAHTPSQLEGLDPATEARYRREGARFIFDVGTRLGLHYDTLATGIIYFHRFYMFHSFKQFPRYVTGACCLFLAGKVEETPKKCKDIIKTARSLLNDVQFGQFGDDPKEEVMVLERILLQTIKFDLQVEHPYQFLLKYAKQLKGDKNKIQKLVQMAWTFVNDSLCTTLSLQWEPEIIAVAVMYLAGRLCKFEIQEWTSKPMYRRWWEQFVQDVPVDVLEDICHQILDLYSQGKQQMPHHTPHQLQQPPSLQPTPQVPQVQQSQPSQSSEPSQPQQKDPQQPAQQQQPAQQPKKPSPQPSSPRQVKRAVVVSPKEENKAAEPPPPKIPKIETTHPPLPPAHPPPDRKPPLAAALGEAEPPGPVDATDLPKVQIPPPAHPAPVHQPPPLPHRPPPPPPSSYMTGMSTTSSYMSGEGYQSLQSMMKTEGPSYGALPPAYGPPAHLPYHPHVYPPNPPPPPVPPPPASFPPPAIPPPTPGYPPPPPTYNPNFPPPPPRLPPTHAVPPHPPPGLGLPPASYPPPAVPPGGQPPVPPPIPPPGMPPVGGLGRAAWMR

| IC50 [8] [nM] | IC50 [9] [nM] | IC50 [5, 10] [nM] | SMILES | IC50 [1] [nM] | IC50 [2] [nM] | Cyclin K degradation ability [3] | Cyclin K degradation ability [4] | IC50 [5] [nM] | IC50 [6] [nM] | IC50 [7] [nM] |
| --- | --- | --- | --- | --- | --- | --- | --- | --- | --- | --- |
|  |  |  | Nc1ncc(-c2cc(NCc3nc4cc(Cl)c(Cl)cc4[nH]3)c3ncc(C(F)(F)F)n3n2)cn1 [Example 40] | ≤ 200 | ≤ 200 | strongly degrade Cyclin K | strongly degrade Cyclin K | < 100 | ≤ 200 | ≤ 200 |
|  |  |  | N#CC1CN(c2cc(NCc3nc4cc(Cl)c(Cl)cc4[nH]3)c3ncc(C(F)(F)F)n3n2)C1 [Example 30, 1-(8-(((5,6-dichloro-1H-benzol[d]imidazol-2-yl)methyl)amino)-3-(trifluoromethyl)imidazo[1,2-b]pyridazin-6-yl)azetidine-3-carbonitrile] |  |  |  | strongly degrade Cyclin K | 100 to 500 |  |  |
| ≤ 200 | ≤ 200 | < 100 | CN1CCN(c2cc(NCc3nc4ccc(F)c(F)c4[nH]3)c3ncc(C(F)(F)F)n3n2)CC1 [Example 8, N-((6,7-difluoro-1H-benzo[d]imidazol-2-yl)methyl)-6-(4-methylpiperazin-1-yl)-3-(trifluoromethyl)imidazo[1,2-b]pyridazin-8-amine] | ≤ 200 | ≤ 200 | strongly degrade Cyclin K | strongly degrade Cyclin K |  | ≤ 200 | ≤ 200 |
|  |  | < 100 | CN1CCN(c2cc(NCc3nc4cc(Cl)c(Cl)cc4[nH]3)c3ncc(C(F)(F)F)n3n2)CC1 [Example 29, N-((5,6-dichloro-1H-benzo[d]imidazol-2-yl)methyl)-6-(4-methylpiperazin-1-yl)-3-(trifluoromethyl)imidazo[1,2-b]pyridazin-8-amine] |  |  |  |  |  |  |  |
